Laboratory results: US20240344145A1, “PHARMACOGENOMICS SCORE TO MAKE DECISIONS ON THERAPY AUGMENTATION IN AML” (University of Florida Research Foundation, Incorporated, priority 2021, published 2024)

Test system: ara-C metabolic pathway genes
Test: Association of ara-C pathway SNP genotypes with MRD1, EFS and OS in AML02 (logistic regression and Cox models; also within LDAC and HDAC arms)
Parameters: species or system human
Details: within arm of AML02
Source text: Genomic DNA from patients enrolled in the multi-site St. Jude AML02 trial was genotyped for 155 SNPs in 16 genes of relevance to ara-C pharmacology using sequenom iPlex platform that uses MALDI-TOF based chemistry at University of Minnesota, Biomedical Genomics Center. SNPs were selected based on previously reported studies. For SNPs lacking literature on genetic variation, SNPs were selected to capture LD blocks (European and African ancestry) on a gene. Of 155 SNPs, 1 SNP was excluded due to low call rate (<90%), 47 SNPs were excluded due to minimum allele frequency of less than 5%, 11 SNPs were excluded due to high LD (r^2>0.9) with other SNPs; two SNPs were excluded because of deviation from Hardy-Weinberg equilibrium. Genotype for the COG-AAML0531 cohort for the selected SNPs was obtained using sequenom platform or TaqMan genotyping assays, and for a few SNPs was extracted from the data available on Illumina 2.5 Omni array. Genotype calls from multiple platforms were confirmed across multiple samples randomly collected from the cohort.
SNP genotype groups in three different modes of inheritance (additive, dominant, and recessive) were tested for association with MRD1 using logistic regression models. Odds ratio (OR) and 95% confidence interval (CI) were calculated for each test. SNPs with association P-value<0.05 were considered significant. Cox-proportional hazard models were used to evaluate association of genotype groups with EFS or OS. Hazard ratio (HR) and 95% CI were calculated for each test. p-value<0.05 was considered statistically significant. Given initial risk group assignments are well-established prognostic factors associated with outcome, outcome association analysis of SNPs with and without adjusting for risk group was also performed to identify SNPs that are associated with outcome independent of risk group.
SNPs with p<0.15 in risk-adjusted univariate evaluation with clinical endpoints (MRD1, EFS, and OS) were tested for all possible combinations with a maximum of three SNPs per model in multivariable logistic regression models for association with MRD1 and Cox-proportional hazard models for association with EFS and OS. Analysis for up to 3 SNP combinations was restricted due to computational challenges as increasing the maximum number of SNPs per model drastically increases the number of models as 1000 permutations were run for each model. Models were ordered according to their Bayesian Information Criterion (BIC) and weight in favor of each model. One thousand permutation tests were performed for each model to determine statistical significance. The six unique SNPs from the most significant models for EFS and MRD1 were included in the development of the ACS10 score as described in the results section.
The multicenter AML02 clinical trial randomly assigned subjects to receive low dose ara-C (LDAC: 100 mg/m^2; n=91 patients) or high dose ara-C(HDAC: 3 g/m^2; n=75 patients) in combination with daunorubicin and etoposide as the first course of chemotherapy as described above in patient cohort section. Thus, the association of SNPs with outcome within each arm separately was also explored (Table 5).

[1] = rs4742 (DCTD, WT T, VAR C), MOI R
[2] = rs5841 (NME4, WT C, VAR T), MOI D
[3] = rs324148 (SLC29A1, WT C, VAR T), MOI A
[4] = rs407983 (NME4, WT G, VAR C), MOI A
[5] = rs507964 (SLC29A1, WT C, VAR A), MOI R
[6] = rs580032 (CDA, WT T, VAR G), MOI D
[7] = rs602950 (CDA, WT T, VAR C), MOI A
[8] = rs747199 (SLC29A1, WT C, VAR G), MOI D
[9] = rs818196 (CDA, WT G, VAR C), MOI D
[10] = rs1048977 (CDA, WT C, VAR T), MOI D
[11] = rs1138729 (RRM2, WT A, VAR G), MOI D
[12] = rs2072671 (CDA, WT A, VAR C), MOI A
[13] = rs2396243 (SLC29A1, WT G, VAR A), MOI D
[14] = rs3088062 (CMPK1, WT T, VAR C), MOI A
[15] = rs3743162 (SLC28A1, WT C, VAR T), MOI D
[16] = rs3829540 (NME3, WT G, VAR A), MOI D
[17] = rs3925058 (CMPK1, WT T, VAR C), MOI D
[18] = rs4247411 (SLC28A1, WT C, VAR T), MOI D
[19] = rs4271567 (SLC28A1, WT T, VAR A), MOI R
[20] = rs4643786 (DCK, WT T, VAR C), MOI R

## Nc1ccn([C@@H]2O[C@H](CO)[C@@H](O)[C@@H]2O)c(=O)n1 [HDAC, cytarabine]
[1]
  EFS HR (95% CI): 1.53 (0.98-2.4)
  MRD1 OR (95% CI): 1.08 (0.49-2.38)
  OS HR (95% CI): 1.49 (0.91-2.46)
[2]
  EFS HR (95% CI): 0.86 (0.6-1.23)
  MRD1 OR (95% CI): 0.48 (0.28-0.81)
  OS HR (95% CI): 1.15 (0.74-1.81)
[3]
  EFS HR (95% CI): 0.88 (0.52-1.5)
  MRD1 OR (95% CI): 1.08 (0.55-2.1)
  OS HR (95% CI): 0.75 (0.39-1.46)
[4]
  EFS HR (95% CI): 1.1 (0.7-1.72)
  MRD1 OR (95% CI): 1.43 (0.76-2.67)
  OS HR (95% CI): 1.05 (0.62-1.8)
[5]
  EFS HR (95% CI): 1.71 (1.12-2.62)
  MRD1 OR (95% CI): 1.01 (0.51-2.01)
  OS HR (95% CI): 1.37 (0.8-2.36)
[6]
  EFS HR (95% CI): 0.45 (0.22-0.92)
  MRD1 OR (95% CI): 0.91 (0.49-1.66)
  OS HR (95% CI): 0.58 (0.28-1.19)
[7]
  EFS HR (95% CI): 1.25 (0.74-2.09)
  MRD1 OR (95% CI): 0.69 (0.32-1.48)
  OS HR (95% CI): 0.86 (0.44-1.69)
[8]
  EFS HR (95% CI): 0.97 (0.66-1.42)
  MRD1 OR (95% CI): 1.37 (0.82-2.29)
  OS HR (95% CI): 1.1 (0.72-1.71)
[9]
  EFS HR (95% CI): 0.66 (0.45-0.98)
  MRD1 OR (95% CI): 0.9 (0.56-1.47)
  OS HR (95% CI): 0.73 (0.47-1.14)
[10]
  EFS HR (95% CI): 0.9 (0.63-1.28)
  MRD1 OR (95% CI): 1.09 (0.67-1.78)
  OS HR (95% CI): 1.44 (0.7-2.98)
[11]
  EFS HR (95% CI): 1.14 (0.78-1.66)
  MRD1 OR (95% CI): 1.04 (0.61-1.77)
  OS HR (95% CI): 1.42 (0.93-2.17)
[12]
  EFS HR (95% CI): 1.18 (0.7-1.99)
  MRD1 OR (95% CI): 0.73 (0.34-1.56)
  OS HR (95% CI): 0.89 (0.46-1.75)
[13]
  EFS HR (95% CI): 0.94 (0.63-1.39)
  MRD1 OR (95% CI): 1.39 (0.84-2.31)
  OS HR (95% CI): 0.87 (0.54-1.4)
[14]
  EFS HR (95% CI): 1.41 (0.8-2.51)
  MRD1 OR (95% CI): 1.16 (0.48-2.81)
  OS HR (95% CI): 1.48 (0.75-2.94)
[15]
  EFS HR (95% CI): 1.65 (1.15-2.36)
  MRD1 OR (95% CI): 1.89 (1.15-3.11)
  OS HR (95% CI): 1.43 (0.94-2.18)
[16]
  EFS HR (95% CI): 0.71 (0.47-1.09)
  MRD1 OR (95% CI): 0.82 (0.49-1.37)
  OS HR (95% CI): 0.51 (0.27-0.93)
[17]
  EFS HR (95% CI): 0.81 (0.56-1.18)
  MRD1 OR (95% CI): 1.41 (0.79-2.53)
  OS HR (95% CI): 0.76 (0.49-1.18)
[18]
  EFS HR (95% CI): 1.69 (1.08-2.64)
  MRD1 OR (95% CI): 1.91 (1.08-3.37)
  OS HR (95% CI): 1.72 (1-2.95)
[19]
  EFS HR (95% CI): 0.52 (0.29-0.95)
  MRD1 OR (95% CI): 0.66 (0.35-1.23)
  OS HR (95% CI): 0.54 (0.26-1.11)
[20]
  EFS HR (95% CI): 1.15 (0.63-2.09)
  MRD1 OR (95% CI): 0.87 (0.36-2.12)
  OS HR (95% CI): 1.38 (0.75-2.56)
